Data as given in patent US10774281B2, “Use of a particular carboxylic amino acid in order to limit the formation and/or agglomeration of gas hydrates” (Arkema France, priority 2015, dated 2020).

Assays:
[1] = Biodegradability in marine medium, OCDE test 306; conditions: in words
Procedure: (§1) According to OCDE test 306 (marine medium), the composition of the invention (B1), comprising a compound of formula (I), has a biodegradability of 70%, i.e. greater than 60%. […] Its Log Pow measured according to OCDE 117 by HPLC is 2.93<3. Its Algal ecotoxicity is 2 mg·L^−1.

[2] = Bioaccumulation, Log Pow according to OCDE 117 by HPLC; type: physicochemical
Procedure: as §1

Biodegradability classification [1]	Bioaccumulation, in words [2]	Substance
not biodegradable	bioaccumulable	di-tallow-hydrogenodimethylammonium chloride [Noramium® M2SH]
not biodegradable	bioaccumulable	dicocoyldimethylammonium chloride [Noramium® M2C]
